Laboratory results as given in US7906486B2, “Method of treating or preventing tissue deterioration, injury or damage due to disease of mucosa” (SciClone Pharmaceuticals, Inc., priority 2007, dated 2011).
“And” between values parts separate entries of the source, which are not always exact repeats. Identical values can stand only once.

Test system: oral mucositis induced by fractionated radiation (eight doses of 7.5 Gy, left buccal cheek pouch)
Assay: Oral mucositis induced by fractionated radiation in hamsters, mucositis scoring (Example 3, SCI-03)
Type: in vivo, Syrian Golden Hamsters
Set-up: key: 0: Pouch completely healthy. No erythema or vasodilation.; 1: Light to severe erythema and vasodilation. No erosion of mucosa.; 2: Severe erythema and vasodilation. Erosion of superficial aspects of mucosa leaving denuded areas. Decreased stippling of mucosa.; 3: Formation of off-white ulcers in one or more places. Ulcers may have a yellow/gray due to pseudomembrane. Cumulative size of ulcers should equal about ¼ of the pouch. Severe erythema and vasodilation.; 4: Cumulative seize of ulcers should equal about ½ of the pouch. Loss of pliability. Severe erythema and vasodilation.; 5: Virtually all of pouch is ulcerated. Loss of pliability (pouch can only partially be extracted from mouth)
From the text: The fractionated radiation model in hamsters, developed by the Principal Investigator, has proven to be an accurate, efficient and cost-effective technique to provide a preliminary evaluation of anti-mucositis compounds. In this model, hamsters receive 8 doses of 7.5 Gy to the left cheek pouch on days 0, 1, 2, 3, […], rather than the single dose of 40 Gy on day 0 that is used in acute radiation studies. The rationale for using this scheduling for the radiation is that it more closely resembles the clinical courses of radiotherapy given to cancer patients. The course of mucositis in this model is well defined and results in peak mucositis scores approximately 14-16 days following radiation. Mortality (generally from the side effects of anesthesia) in the fractionated radiation model is slightly higher than that seen in the acute radiation model and group sizes are increased (to 10 per group) to allow for this.
(§1) Forty (40) male Syrian Golden Hamsters were given eight doses of radiation of 7.5 Gy each directed to their left buccal cheek pouch on days 0, 1, 2, 3, 6, 7, 8 and 9. This was accomplished by anesthetizing the animals and everting the left buccal pouch, while protecting the rest of the animal's bodies with a lead shield. Test materials were given by sub-cutaneous injection once daily as detailed in Table 9. Mucositis was evaluated clinically starting on day 7, and continuing on alternate days until day 35. Test articles were given as outlined Table 9, Groups 1 and 2 were dosed from Day −1 to Day 29, Group 3 was dosed on the days of radiation only, Group 4 was dosed on the days between Day −15 and Day 29 on which no radiation is given (Day −1, Day 4, Day 5 and Day 10 to Day 29).
The effect on mucositis of each drug treatment compared to placebo was assessed according to the following parameters:
On each evaluation day, the number of animals with a blinded mucositis score of ≧3 in each drug treatment group was compared to the control group. Differences were compared on a cumulative basis and statistical significance was determined by chi-square analysis. Efficacy, in this analysis, is defined by a significant reduction in the number of days that a group of animals had ulcerations (scores ≧3) when compared to the control group.
For each evaluation day the scores of the control group were compared to those of the treated groups using non-parametric rank sum analysis. Treatment success was considered as a statistically significant lowering of scores in the treated group on 2 or more days from day 6 to day 28.
as §1, with “daily at 8:00 am” for “daily”, “9. […]” for “9. Mucositis was evaluated clinically starting on day 7, and continuing on alternate days until day 35.”, “2 was” for “2 were”, “radiation only (days 0-3 and days 6-10),” for “radiation only,”, “Day −1” for “Day −15”, “Day 4 to” for “Day 4,”
Radiation was generated with a Philips 160 kVp (kilovolt potential) (18.75-ma) X-ray source at a focal distance of 30 cm, with a 3.0 mm hardened Al filtration system. Irradiation was targeted to the left buccal pouch mucosa at a rate of 3.32 Gy/minute. […] Using this calibration, the energy received by each animal at each radiation dose was approximately 64.5 nC (nanoCoulombs) at each time point. Prior to irradiation, animals were anesthetized with an intraperitoneal injection of ketamine (160 mg/kg) and xylazine (8 mg/kg). The left buccal pouch was everted, fixed and isolated using a lead shield.
The mucositis score, weight change and survival were measured throughout the study as described above. […]

N[C@H](CCC(=O)N[C@@H](Cc1c[nH]c2ccccc12)C(=O)O)C(=O)O [SCV-07, γ-D-glutamyl-L-tryptophan]
Mucositis score (Group 2, day 7, individual animals (two score lines each)): 0 | Mucositis score (Group 2, day 9, individual animals (two score lines each)): 1 (5×) and 0 (2×) | Mucositis score (Group 2, day 11, individual animals (two score lines each)): 1 | Mucositis score (Group 2, day 13, individual animals (two score lines each)): 3 | Mucositis score (Group 2, day 15, individual animals (two score lines each)): 3 | Mucositis score (Group 2, day 17, individual animals (two score lines each)): 3 | Mucositis score (Group 2, day 21, individual animals (two score lines each)): 3 | Mucositis score (Group 2, day 23, individual animals (two score lines each)): 3 | Mucositis score (Group 2, day 25, individual animals (two score lines each)): 3 | Mucositis score (Group 2, day 27, individual animals (two score lines each)): 3 | Mucositis score (Group 2, day 31, individual animals (two score lines each)): 0 (2×) and 1 (3×) | Mucositis score (Group 2, day 33, individual animals (two score lines each)): 1 | Mucositis score (Group 2, day 35, individual animals (two score lines each)): 1 (3×) and 0 (4×)
